For assay [1], the system named is caspase-3 activation in Hela cells. Briefly: Fluorescence imaging of Hela cells transfected with caspase-3 sensor, STS induction. It is filed as cell-based, human. The procedure:
(§1) Hela cells were grown on glass coverslips (0.5-1.0×10^6 cells/dish) in 35 mm culture dishes in Dulbecco's Modified Eagles Medium (DMEM) (Sigma Chemical Co., St. Louis, Mo.) with 44 mM NaHCO3, pH 7.2, and supplemented with 10% (v/v) fetal calf serum (FCS), 100 U/ml penicillin and 0.1 mg/ml streptomycin (Pen/Strep) at 37° C. with 5% CO2 in a humidified incubation chamber. After the cells were seeded and grown overnight, the EGFP-based caspase-3 sensor plasmid was transfected into Hela cells with lipofectamine-2000 (Invitrogen Life Technologies) and serum-free Opti-MEM (Gibco Invitrogen Corporation) according to the manufacturer's instructions. […] The cells were then grown 24 to 48 hours in a humidified chamber with 5% CO2 at 30° C. before fluorescence microscope imaging. […]
Hela cells with transfected EGFP-based caspase-3 sensor were imaged following its expression for 24 or 48 hours. […] Fluorescence imaging of Hela cells with EGFP-wt transfection was used as the control.
The ratiometric change between fluorescence emission for excitation at 398 nm and 488 nm was used to detect caspase-3 activation and inhibition at different time intervals in living cells. Fluorescence for both excitation wavelengths is expected to decrease at 398 nm and produce a corresponding increase at 488 nm during the course of the reaction. The fluorescence intensity of the cells was normalized with equation 2: […]

Assay [2] has as its target T1, trypsin (Bos taurus, UniProt P00760).
T1 construct: Active trypsin is produced only after trypsinogen reaches the small intestine through the common bile duct and is cleaved by enterokinase; purchased Sigma, St. Louis; host or cells: bovine pancreas
T1 sequence (P00760 24-246): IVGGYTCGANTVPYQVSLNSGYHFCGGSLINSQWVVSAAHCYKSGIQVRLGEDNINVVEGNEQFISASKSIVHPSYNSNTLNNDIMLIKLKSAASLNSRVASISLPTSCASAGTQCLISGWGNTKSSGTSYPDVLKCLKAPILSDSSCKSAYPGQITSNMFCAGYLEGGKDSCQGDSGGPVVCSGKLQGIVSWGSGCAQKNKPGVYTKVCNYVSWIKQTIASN
As to the kind of experiment: Steady-state kinetics of trypsin digestion of EGFP-based trypsin sensors and BAPNA (absorbance at 490 nm, Michaelis-Menten fit). To be noted: Table 2; 10 mM Tris, 20 mM CaCl2, pH 7.4. It is filed as biochemical, bovine.
Procedure: Initial rates of trypsin digestion reaction for EGFP-T/C1 with various concentrations were measured using a time-course model to monitor the change of absorbance at 490 nm for 10 min on a UV-1700 spectrometer (Shimadzu, Japan), where the initial rate was equivalent to the resulting slope of absorbance increase.
In order to investigate the kinetic change and to determine the steady-state kinetic parameters kcat, Km, and kcat/Km for hydrolysis of EGFP-based trypsin sensors upon the action of trypsin, initial rates were measured at various EGFP-based trypsin sensor concentrations. The change of absorbance was monitored at 490 nm for 10 min using UV-1700 spectrometer (Shimadzu, Japan) in time-course model and the slope of absorbance increase was determined as the initial rate data. The data were fitted to the Michaelis-Menten equation by nonlinear regression using KaleidaGraph 3.5 software (Synergy software) to obtain the Michaelis constants (Km), turnover numbers (kcat) and specificity constants (kcat/Km).
In order to examine buffer pH effect on trypsin cleavage, kinetic parameters of our designed trypsin sensors were evaluated during trypsin digestion in PIPES buffer (20 mM PIPES, 20 mM CaCl2, pH 6.7) and Tris buffer (10 mM Tris, 20 mM CaCl2, pH 7.4 and pH 8.0), respectively. […]

Assay [3] addresses T1, trypsin. Briefly: Cleavage status after trypsin digestion (SDS-PAGE, MALDI-MS). The class given is biochemical, bovine. To be noted: up to 40 hours. The procedure:
To examine the cleavage status of the protease sensors (EGFP-T/C1, and EGFP-wt) at different time points, 20 μl of reaction mixtures of 15 μM EGFP variants during trypsin digestion were removed and immediately added SDS sample buffer and boiled to stop the reaction for monitoring by SDS-PAGE at different digestion time intervals (0 min, 5 min, 10 min, 30 min, 60 min, 2 h, 6 h, and 24 h). The samples were loaded on 15% SDS-PAGE to examine the cleavage status of three EGFP variants.
Similarly, after digestion with trypsin, the cleavage status was confirmed using matrix assisted laser desorption/ionization-mass spectrometry (MALDI-MS).
In order to verify the cleavage status of EGFP-based trypsin sensors, the samples during trypsin digestion at various digestion time intervals were examined with 15% SDS-PAGE and MALDI mass spectrometry.

Assay [4] relates to trypsin activation in MIA PaCa-2 cells. As to the kind of experiment: Fluorescence imaging of MIA PaCa-2 cells transfected with trypsin sensor, caerulein activation. The class given is cell-based. To be noted: zymogen activation by 10 nM caerulein. As for the experimental part:
as §1, with “MIA PaCa-2” for “Hela”, “bovine” for “calf”, “(FBS),” for “(FCS),”, “EGFP-T/C1” for “the EGFP-based caspase-3 sensor plasmid”
MIA PaCa-2 cells with transfected EGFP-T/C1 were imaged following trypsin sensor expression for 24 or 48 hours. […] The ratiometric change between fluorescence emission for excitation at 398 nm and 488 nm was used to detect trypsin activity at different time intervals in the living cells. Fluorescence for both excitation wavelengths is expected to decrease at 398 nm and produce a corresponding increase at 488 nm during the course of reaction. The fluorescence intensity of the cells was normalized with equation 2: […]
The fluorescence ratiometric change (R) is expressed by equation 3: […]

For assay [5], the system named is caspase-3 activation in MIA PaCa-2 cells. As to the kind of experiment: Fluorescence imaging of MIA PaCa-2 cells transfected with caspase-3 sensor, STS induction. The class given is cell-based. An excerpt: After induction, there was obvious increase in fluorescence of EGFP-EF172cas2 at 398 nm excitation and significant decrease in fluorescence at 488 nm excitation in real time, which results in an increased fluorescence ratio change between 398 and 488 nm, and a corresponding increase in sensitivity for determining the caspase-3 activity in living cells, and an increase in the dynamic range up to 4 for the caspase-3 activity determination. Although there was a slight increase and then decrease in fluorescence of EGFP-wt at both wavelengths after STS induction, the relative fluorescence ratio change was negligible. A possible reason for this would be a change in the cell shape to which increases the fluorescence slightly during the apoptosis. […] Apoptosis is observed in MIA PaCa-2 is a little earlier and stronger than in HeLa cells. There is a huge fluorescence change with excitation at 398 nm in MIA PaCa-2 cells transfected with EGFP-EF172cas2. The cause of this is reasoned to be due to intrinsic high-level caspase-3 activity in MIA PaCa-2 cells and its activity is enhanced by STS induction.

For assay [6], the target named is T1, trypsin. As to the kind of experiment: Inhibition by leupeptin of trypsin digestion of EGFP-T/C1. The class given is biochemical, bovine. The procedure: In order to examine inhibition effect of leupeptin (Sigma, St. Louis), a trypsin inhibitor, leupeptin at various concentrations (0, 12.5, 25, 50 and 100 nM) was mixed with EGFP-T/C1 and subsequently digested by trypsin at a final concentration of 0.005 μM. The kinetic studies of EGFP-T/C1 with various concentrations were performed at each inhibitor concentration level and the absorbance change at 490 nm was mintored using a time course model. The double reciprocal of initial rates and trypsin sensor concentrations was performed to obtain the plot for confirming inhibition type and calculation of Ki value.
In order to ensure that our developed sensor is able to directly monitor the catalytic step of the enzymatic reaction, we then examined the inhibition effect of leupeptin on trypsin during the digestion of EGFP-T/C1 with various leupeptin concentrations. The rate of the signal change due to cleavage decreases with increasing leupeptin concentrations (FIG. 6A).

Entries after “also recorded” stand apart in the source; their conditions may differ.

DEVD-CHO: the “ratio (R398/488) of fluorescence of caspase-3 sensor cells incubated with caspase-3 inhibitor” value in assay [1] (Hela cells transfected with EGFP-cas3-1e, inhibitor overnight, then 1 μM STS) is “no change”.

For orientation: kcat means the maximal rate divided by the concentration of active sites. As to `Cl.N=C(N)NCCCC(NC(=O)c1ccccc1)C(=O)Nc1ccc([N+](=O)[O-])cc1` (racemic) [BAPNA, benzoyl-DL-arginine-4-nitroanilide hydrochloride], the kcat at trypsin [2] turned out to be 1.33 ± 0.17 s⁻¹.

Take “EGFP-wt: enhanced green fluorescent protein, Sequence ID. No. 119; used as the control”: in the assay with trypsin [3], the “cleavage status upon incubation with trypsin” value is reported as “remains intact”. Further, the “ratiometric emission change (510 nm emission, excitation 488/398 nm)” value in assay [4] was “remained unchanged”. Moreover, the “ratio (R398/488) of fluorescence signal change” value in assay [1] (Hela cells, 1 μM STS induction, emission 510 nm) is reported as “no apparent ratiometric change; also recorded: negligible”. Moreover, the fluorescence ratio change result in assay [5] is given as “maintains a gradient increase”.

By Ki is commonly meant a measure of affinity in units of concentration, obtained from inhibition or displacement. Low values mean tighter binding, high ones weaker binding. Regarding `CC(=O)N[C@@H](CC(C)C)C(=O)N[C@@H](CC(C)C)C(=O)N[C@H](C=O)CCCNC(=N)N` [leupeptin], the inhibition type result against trypsin [6] (double reciprocal plot, Enzfitter fit) is recorded as “competitive inhibition”. Moreover, the affinity on trypsin [6] (substrate EGFP-T/C1, 0.005 μM trypsin, 10 mM Tris, 20 mM CaCl2, pH 7.4), expressed as Ki, was 31.1 ± 2.3 nM.

The values above are taken from patent publication US9103830B2, “Enzyme sensors, methods for preparing and using such sensors, and methods of detecting protease activity” (Georgia State University Research Foundation, Inc., priority 2006, dated 2015).
